Article PMC6345161 (Journal of medicinal chemistry, 2018)

Experiments:
MRSA (ATCC BAA-44) = assay: MRSA proliferation assay; assay type: cell-based, Staphylococcus aureus
S. aureus (ATCC 25923) = assay: S. aureus proliferation assay; assay type: cell-based, Staphylococcus aureus
E. coli GroEL = E. coli GroEL (Escherichia coli, UniProt P0A6F5); assay: Isothermal titration calorimetry binding to GroEL; conditions: for T∆S: 20°C (293.15 K); for Stoichiometry n, GroELmonomer : Molecule: single-site binding model; for ∆G: calculated with Gibbs equation at 20°C
E. coli GroEL, sequence (P0A6F5 2-548): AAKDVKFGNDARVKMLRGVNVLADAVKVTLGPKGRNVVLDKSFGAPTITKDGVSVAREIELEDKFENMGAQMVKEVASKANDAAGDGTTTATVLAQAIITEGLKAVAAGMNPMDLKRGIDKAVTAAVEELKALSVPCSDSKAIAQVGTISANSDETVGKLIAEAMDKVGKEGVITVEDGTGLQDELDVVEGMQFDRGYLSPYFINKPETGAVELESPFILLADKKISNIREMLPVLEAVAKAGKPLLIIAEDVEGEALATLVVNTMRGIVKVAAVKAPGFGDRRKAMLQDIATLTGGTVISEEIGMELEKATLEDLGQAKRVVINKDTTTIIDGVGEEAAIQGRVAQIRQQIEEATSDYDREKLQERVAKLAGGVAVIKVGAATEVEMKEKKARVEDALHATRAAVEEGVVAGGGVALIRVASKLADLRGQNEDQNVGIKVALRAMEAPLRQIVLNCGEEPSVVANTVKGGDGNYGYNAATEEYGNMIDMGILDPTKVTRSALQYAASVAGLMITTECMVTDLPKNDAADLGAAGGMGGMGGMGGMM

[1] = tested on: MRSA strain (ATCC BAA-44); assay: 12-day serial passage MRSA resistance assay; assay type: cell-based, Staphylococcus aureus; conditions: for MRSA resistance generation: 12 passages over 12 days
[2] = target: T1, native malate dehydrogenase (Sus scrofa, UniProt P00346); assay: Native MDH enzymatic reporter counter-screen; assay type: biochemical
T1 sequence (P00346 25-338): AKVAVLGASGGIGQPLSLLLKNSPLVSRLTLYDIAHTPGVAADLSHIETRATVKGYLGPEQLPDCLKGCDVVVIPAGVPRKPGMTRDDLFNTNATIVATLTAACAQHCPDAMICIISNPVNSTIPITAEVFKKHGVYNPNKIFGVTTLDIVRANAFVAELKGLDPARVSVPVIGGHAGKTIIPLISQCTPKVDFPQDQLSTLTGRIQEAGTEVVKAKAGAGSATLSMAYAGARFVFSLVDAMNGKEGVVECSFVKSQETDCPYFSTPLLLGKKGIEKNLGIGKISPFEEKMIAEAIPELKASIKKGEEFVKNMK

native rhodanese = target: T2, native rhodanese (Bos taurus, UniProt P00586); assay: Native Rho enzymatic reporter counter-screen; assay type: biochemical
T2 sequence (P00586 2-297 limits assumed): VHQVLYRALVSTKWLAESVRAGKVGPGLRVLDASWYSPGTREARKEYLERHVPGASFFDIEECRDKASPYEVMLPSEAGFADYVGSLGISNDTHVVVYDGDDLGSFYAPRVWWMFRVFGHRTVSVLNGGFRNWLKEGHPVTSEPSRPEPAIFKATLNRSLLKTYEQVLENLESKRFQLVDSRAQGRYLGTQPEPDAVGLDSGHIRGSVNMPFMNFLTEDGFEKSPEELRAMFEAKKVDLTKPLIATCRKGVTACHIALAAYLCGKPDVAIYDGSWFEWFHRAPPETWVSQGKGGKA

ESKAPE pathogens = conditions: cited from earlier work

O=S(=O)(Nc1ccc(-c2nc3cc(NS(=O)(=O)c4ccc(Cl)cc4)ccc3o2)cc1)c1ccc(Cl)cc1 [2c-p]
inhibition of MRSA proliferation (MRSA (ATCC BAA-44)): most potent and selective inhibitors of MRSA proliferation

NCc1ccc(S(=O)(=O)Nc2ccc3oc(-c4ccc(NS(=O)(=O)c5ccc(Cl)s5)cc4)nc3c2)cc1 [20L]
inhibition of MRSA proliferation (MRSA (ATCC BAA-44)): only moderately active
inhibition of S. aureus proliferation (S. aureus (ATCC 25923)): only moderately active
Stoichiometry n, Molecule : GroELmonomer (E. coli GroEL; ITC, 20°C): 1.67 ± 0.39
∆H (E. coli GroEL; ITC, 20°C): -8.30 ± 0.52 kcal/mol
∆S (E. coli GroEL; ITC, 20°C): 0.003 ± 0.002 kcal/molK
T∆S (E. coli GroEL; ITC): 0.84 ± 0.55 kcal/mol
Stoichiometry n, GroELmonomer : Molecule (E. coli GroEL; ITC, 20°C): 0.6 ± 0.14
Stoichiometry n, Molecule : GroELoligomer (E. coli GroEL; ITC, 20°C, molecules per GroEL tetradecamer): 23.3 ± 5.4
∆G (E. coli GroEL): -9.14 ± 0.06 kcal/mol

NCc1ccc(S(=O)(=O)Nc2ccc(-c3nc4cc(NS(=O)(=O)c5ccc(Cl)s5)ccc4o3)cc2)cc1 [20R]
MRSA resistance generation [1]: unable to generate resistance
inhibition of MRSA proliferation (MRSA (ATCC BAA-44)): only moderately active
inhibition of S. aureus proliferation (S. aureus (ATCC 25923)): only moderately active
Stoichiometry n, Molecule : GroELmonomer (E. coli GroEL; ITC, 20°C): 1.30 ± 0.27
∆H (E. coli GroEL; ITC, 20°C): -9.78 ± 0.80 kcal/mol
∆S (E. coli GroEL; ITC, 20°C): 0.001 ± 0.003 kcal/molK
T∆S (E. coli GroEL; ITC): 0.20 ± 0.82 kcal/mol
Stoichiometry n, GroELmonomer : Molecule (E. coli GroEL; ITC, 20°C): 0.77 ± 0.16
∆G (E. coli GroEL): -9.98 ± 0.26 kcal/mol

O=[N+]([O-])c1cc(S(=O)(=O)Nc2ccc(-c3nc4cc(NS(=O)(=O)c5ccc(Cl)s5)ccc4o3)cc2)ccc1Cl [28R]
inhibition of native malate dehydrogenase [2]: only to a minor extent
MRSA resistance generation [1]: rapidly developed resistance
sensitivity of resistant MRSA after culture without inhibitor ([1]; two days without inhibitors (24 h agar, 24 h liquid)): regained sensitivity
inhibition of native rhodanese (native rhodanese): only to a minor extent

CN[C@H](CC(C)C)C(=O)N[C@H]1C(=O)N[C@@H](CC(N)=O)C(=O)N[C@H]2C(=O)N[C@H]3C(=O)N[C@H](C(=O)N[C@H](C(=O)O)c4cc(O)cc(O)c4-c4cc3ccc4O)[C@H](O)c3ccc(c(Cl)c3)Oc3cc2cc(c3O[C@@H]2O[C@H](CO)[C@@H](O)[C@H](O)[C@H]2O[C@H]2C[C@](C)(N)[C@H](O)[C@H](C)O2)Oc2ccc(cc2Cl)[C@H]1O [vancomycin, reference compound]
MRSA resistance generation [1]: retained sensitivity

O=S(=O)(Nc1ccc(-c2nc3cc(NS(=O)(=O)c4cccs4)ccc3o2)cc1)c1cccs1 [compound 6]
inhibition of MRSA proliferation (MRSA (ATCC BAA-44)): most potent and selective inhibitors of MRSA proliferation

Cc1ccc(S(=O)(=O)Nc2ccc(-c3nc4ccc(NS(=O)(=O)c5ccc(C)cc5)cc4[nH]3)cc2)cc1 [compound 1]
antibacterial effects against ESKAPE pathogens (ESKAPE pathogens): no antibacterial effects
